Test results from US11903957B2, “Composition for preventing, ameliorating, or treating sleep disturbance comprising flavonoid compound as effective component” (KOREA INSTITUTE OF ORIENTAL MEDICINE, priority 2018, dated 2024).

Tests used:
[1] = system: C57BL/6 mouse induced to have sleep disturbance by caffeine; assay: Open field test in animal model with sleep disturbance induced by caffeine; format: in vivo; settings: 30 mg/kg saponarin or 200 mg/kg St. John's wort orally for 14 days, compared to control
Description: (§1) 30 mg/kg saponarin (Sigma-Aldrich, St. Louis, Mo., USA; dissolved in 0.5% CMC solution) and 200 mg/kg St. John's wort (dissolved in 0.5% CMC solution) were aliquoted to satisfy the administration amount and orally administered one hour before the caffeine administration. To the normal and stress control, 0.5% CMC solution was orally administered while 30 mg/kg saponarin was administered to the saponarin group and 200 mg/kg St. John's wort was administered to the positive control, in an amount of 0.1 ml for each.
Nine-week old male C57BL/6 mouse with bodyweight of 20 to 22 g was obtained from DBL Co., Ltd. (Eumseong-Gun, Chungcheong-Bukdo, Korea). The animal was supplied with a sufficient amount of water and solid feed (not added with any antibiotics, Samyang Animal Feed Co.) till the test day, and it was used for the experiment after acclimation for 1 week under an environment with temperature of 22±2° C., humidity of 55±15%, and 12-hour light and dark cycle. The experiment was carried out as illustrated in FIG. 1. Chemicals were orally administered every day for 14 days in total, and, according to intraperitoneal administration of 10 mg/kg caffeine 1 hour thereafter, sleep disturbance was induced.
Open field test is to determine sleep disturbance and amelioration level obtained by pharmaceutical in which the determination is made by measuring the voluntary movement of a mouse after entering an unfamiliar field for the first time. A mouse was placed at the center (30×30×30 cm) of a white box, which is made of white acryl, and then travel distance (total distance moved), mobility time, mobility frequency and immobility time for 1 hour were analyzed by using Video tracking software (Ethovision XT, Noldus, Nederland).
The saponarin administration group was orally administered with 30 mg/kg saponarin. After one hour, the animal was intraperitoneally administered with 10 mg/kg caffeine to induce sleep disturbance caused by caffeine for 14 days. Then, travel distance of the mouse was measured.
Then, the mobility time and mobility frequency were measured.
Thereafter, the immobility time of mouse was measured.

[2] = system: neuropeptide Y; assay: mRNA expression level of neuropeptide Y in cerebral cortex (real-time PCR), caffeine-induced sleep disturbance; format: in vivo, mouse; settings: 30 mg/kg saponarin or 200 mg/kg St. John's wort orally for 14 days, caffeine i.p.; cortex obtained on Day 15; compared to control; FIG. 5A
Description: as §1
(§2) Nine-week old male C57BL/6 mouse with bodyweight of 20 to 22 g was obtained from DBL Co., Ltd. (Eumseong-Gun, Chungcheong-Bukdo, Korea). […]
(§3) Expression pattern of the gene in cerebral cortex, which has been removed from each test animal upon the completion of the test, was determined by real-time PCR. The cerebral cortex tissues of a mouse were treated with RNAzolB (Tel-Test) to extract RNA, and then analyzed by cDNA and real-time PCR instrument using One-step SYBR Green PCR kit (AB science).
(§4) The cerebral cortex tissues were added with 500 μl of RNAzol(B), disrupted using a homogenizer, and then added with 50 μl of chloroform (CHCl3) followed by mixing again for 15 seconds. […] Real time quantitative PCR was carried out by using Applied Biosystems 7500 Real-Time PCR system (Applied Biosystems, USA). […]

[3] = system: cholecystokinin; assay: mRNA expression level of cholecystokinin in cerebral cortex (real-time PCR), caffeine-induced sleep disturbance; format: in vivo, mouse; settings: 30 mg/kg saponarin or 200 mg/kg St. John's wort orally for 14 days, caffeine i.p.; cortex obtained on Day 15; compared to control; FIG. 5B
Description: as §1, §2, §3, §4

[4] = system: GABA A α1 receptor; assay: mRNA expression level of GABA A α1 receptor in cerebral cortex (real-time PCR), caffeine-induced sleep disturbance; format: in vivo, mouse; settings: 30 mg/kg saponarin or 200 mg/kg St. John's wort orally for 14 days, caffeine i.p.; cortex obtained on Day 15; compared to control; FIG. 6, p<0.01
Description: as §1, §2, §3, §4

[5] = system: SD rat induced to have sleep disturbance by stress; assay: Electroencephalography (EEG) measurement in animal model with sleep disturbance induced by stress; format: in vivo; settings: foot pad electric shock stress for 5 days, compared to stress control
Description: The saponarin administration group was administered orally with 0.1 ml of saponarin, 30 minutes before the stress application. The normal and stress control were administered orally with 0.1 ml of a solvent. Operation was carried out for four divided groups, i.e., normal, control, saponarin, and positive control (St. John's wort), and total 24 animals were used, i.e., 6 animals per group.
A male rat (7 week old) was suitably fed with solid feed and water till the test day. After the acclimation for 1 week in an environment in which temperature of 23 to 25° C., humidity of 45 to 60%, and illuminance of 200 to 300 LUX, and 12 hour light and dark cycle are maintained, the animals were subjected to the test. For the operation, a 7-week old Sprague Dawley (SD) rat was anesthetized by intraperitoneal injection of 40 mg/kg pentobarbital, and then placed and fixed on a stereotaxic instrument (Stoelting CO, USA) such that the bregma and lambda are in horizontal alignment. After suppressing subgaleal bleeding, hairs were shaved and the skull was exposed by excising the scalp and removing the periosteum. Based on the anatomy drawing by Paxinos & Watson, a hole was created by using drill, an electrode was inserted to reach the dura mater, and an electrode composed of two silver wires was inserted to neck muscle to record an electromyogram. On top of the cranial bone of cerebellum, pins attached with an electrode for recording an electroencephalogram and an electrode for recording an electromyogram were placed and fixed on top of the cranial bone by applying dental cement. […]
After the stress for 5 days, the rat was orally administered with each pharmaceutical, and, after 30 minutes, EEG recording was carried out in a light-blocking acrylic cylinder (PM 8:00 to AM 8:00). The wake time and sleep (REM and NonREM) time were recorded by using SleepSign Ver. […]
After 30 minutes, foot pad electric shock was applied to the SD rats to induce for 5 days sleep disturbance caused by stress. Wake time was then measured for each rat.

In the case of `O=c1cc(-c2ccc(O)cc2)oc2cc(O[C@@H]3O[C@H](CO)[C@@H](O)[C@H](O)[C@H]3O)c([C@@H]3O[C@H](CO)[C@@H](O)[C@H](O)[C@H]3O)c(O)c12` [saponarin, (1S)-1,5-anhydro-1-[7-(beta-D-glucopyranosyloxy)-5-hydroxy-2-(4-hydroxyphenyl)-4-oxo-4H-chromen-6-yl]-D-glucitol], the “travel distance (total distance moved), open field test” value ([1]; 10 mg/kg caffeine i.p. 1 hour later, FIG. 2, p<0.05) is reported as “decreased in significant sense”, the “mobility time, open field test” value ([1]; 10 mg/kg caffeine i.p., FIG. 3A, p<0.01) is reported as “decreased in significant sense” and the “mobility frequency, open field test” value ([1]; 10 mg/kg caffeine i.p., FIG. 3B, p<0.01) is reported as “decreased in significant sense”. For the same compound, the “immobility time, open field test” value ([1]; 10 mg/kg caffeine i.p., FIG. 4) was “increased”, the “mRNA expression of neuropeptide Y in cerebral cortex” value [2] was “show increased expression or tend to show increased expression in statistically significant sense” and the “mRNA expression of cholecystokinin in cerebral cortex” value [3] was “show increased expression or tend to show increased expression in statistically significant sense”. The “mRNA expression of GABA A α1 receptor in cerebral cortex” value [4] was “increased mRNA expression of GABA A α1 receptor in significant sense”, the “wake time during sleep by EEG” value ([5]; 30 mg/kg saponarin or 200 mg/kg St. John's wort orally, FIG. 8, p<0.05) was “decreased in significant sense” and the “REM sleep time by EEG” value ([5]; 30 mg/kg saponarin orally, FIG. 9) was “tends to increase”. The “NonREM sleep time by EEG” value ([5]; 30 mg/kg saponarin orally, FIG. 10) was “tends to increase”.
